# Results taken from patent US8119629B2, “Carboxamide GABAA α2 modulators” (Bristol-Meyers Squibb Company, priority 2007, dated 2012).
# Where a name gives a salt, the structure may show the parent alone.
# Target: T1, rat GABAA α2β2γ2 Receptors (Rattus norvegicus, UniProt P23576)
# T1 construct: expressed in transfected cells; pIRES Neo2 / Hygro2 / Puro2 vectors
# Assay: PatchXpress 7000A automated parallel patch-clamp: potentiation of GABA EC20 current in HEK293 cells
# Type: cell-based
# Conditions: percent increase in mean GABA EC20 current response; HEK293 cells stably expressing rat GABAA α2β2γ2; voltage-clamped at −60 mV
# Method: Cell Line Generation and Transient Expression. In order to generate stable clonal lines expressing GABAA configurations containing α2β2γ2 subunits, HEK293 cells were transfected with 2 μg of the subunit, using the Invitrogen Lipofectamine PLUS protocol. The following DNA and vector were used for the stable transfection: α2 subunits in pIRES Neo2, β2 subunit in pIRES Hygro2, and a γ2 subunit in pIRES Puro2. Transfectants were selected with G418, Hygromycin B, and Puromycin antibiotics and cloned by limiting dilution. For transient expression, transfections were performed using the Amaxa transfection protocol and 2 μg DNA of the GABAA receptor subunit using Amaxa transfection protocol. Cells were used for experiments 24-72 hrs post transfection.
# PatchXpress® 7000A Automated Parallel Patch-Clamp System. HEK293 cells stably expressing recombinant the rat GABAA/α2β2γ2 configuration were harvested by a single DPBS wash followed by 0.025% Trypsin-EDTA treatment for one minute at room temperature. A 6-ml cell suspension (1.7×10^5 cells/ml) was centrifuged at 500 rpm for 60 s. The cell pellet was gently agitated, suspended in 150 μl extracellular saline buffer, and transferred to a 1.5-ml tube.
# After manually placing the AVIVA Biosciences SealChip 16™ in the holder of the PatchXpress®, the SealChip16™ was automatically prepared for application of the cells. Intracellular solution containing (in mM) CsCl, 135; EGTA, 11; MgCl2, 1; HEPES, 10; ATP, 5; GTP, 0.3 (pH 7.3 with CsOH, 290-300 mOsmol) was injected into the bottom of each chamber, and extracellular solution containing (in mM) NaCl, 140; KCl, 4; CaCl2, 1.8; MgCl2, 1; glucose, 10; HEPES, 10; ATP-K2, 5 (pH 7.4 with NaOH 305-310 mOsmol) was perfused into the top of the chambers through a 16-nozzle wash station. Throughout this period, the pressure controller maintained a positive pressure (+10 mmHg) from the intracellular side to keep the hole free of debris. Seal formation was achieved by a ramp increase in negative pressure from 0 to −35 mmHg at a rate of −3.5 mmHg/s every 10 s until a giga ohm seal was obtained and verified for 30 s.
# Compounds were prepared from fresh DMSO stock and were transferred to a 96-well disposable glass insert compound plate for placement in the PatchXpress®. A full 10 point concentration-response curve for GABA was obtained for the GABA receptor cell line, from which an EC20 was estimated. Test compounds were assayed for their ability to potentiate the current response by an EC20 concentration of GABA. Each experiment began by two consecutive applications of GABA EC20 alone. Following formation of a giga-ohm seal, patch chambers were perfused with extracellular saline for 60 s to remove excess cells from the well. Cells were then voltage-clamped to −60 mV for the duration of the experiment. After 60 s, 30 μl (10 μl/s over 3 s) of GABA EC20 concentration, which elicited a GABA receptor-mediated inward Cl^− current generally in the order of 200-300 pA in peak amplitude, was added to each chamber. The GABA EC20 concentration was then washed out of the recording chamber after 5 s and washing with extracellular saline was continued for 60 s. After another 60 s, a second GABA EC20 concentration was applied under the same paradigm. […] Following the second GABA EC20 application, the lowest concentration of test compound in the presence of the GABA EC20 concentration was similarly applied. Ascending concentrations of the test compound were applied successively to an individual well in the presence of the GABA EC20 concentration.
# Only cells meeting strict predetermined patch-clamp QC parameters, including seal resistance, membrane resistance, and holding current were included in data analysis. GABA current responses in the presence of test compound were measured and expressed as the mean of the initial control GABA EC20 current responses. The peak current amplitude was measured using DataXpress/pCLAMP9 (Axon Instruments). Linear leak subtraction was performed off-line. […]
# T1 sequence (P23576 29-451): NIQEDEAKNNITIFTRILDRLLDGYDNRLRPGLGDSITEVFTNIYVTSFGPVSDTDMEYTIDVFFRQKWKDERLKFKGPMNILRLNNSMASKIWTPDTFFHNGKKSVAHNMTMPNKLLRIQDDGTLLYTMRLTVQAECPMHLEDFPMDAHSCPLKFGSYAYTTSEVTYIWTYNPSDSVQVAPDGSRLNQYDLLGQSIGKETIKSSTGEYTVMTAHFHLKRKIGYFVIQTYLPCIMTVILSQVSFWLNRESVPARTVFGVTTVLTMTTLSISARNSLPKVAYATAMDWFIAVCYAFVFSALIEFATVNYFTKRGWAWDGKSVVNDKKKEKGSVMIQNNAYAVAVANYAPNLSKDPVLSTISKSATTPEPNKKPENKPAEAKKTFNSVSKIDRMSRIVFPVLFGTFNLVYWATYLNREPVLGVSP
# T1 sequence (P63138 25-474 partner limits assumed): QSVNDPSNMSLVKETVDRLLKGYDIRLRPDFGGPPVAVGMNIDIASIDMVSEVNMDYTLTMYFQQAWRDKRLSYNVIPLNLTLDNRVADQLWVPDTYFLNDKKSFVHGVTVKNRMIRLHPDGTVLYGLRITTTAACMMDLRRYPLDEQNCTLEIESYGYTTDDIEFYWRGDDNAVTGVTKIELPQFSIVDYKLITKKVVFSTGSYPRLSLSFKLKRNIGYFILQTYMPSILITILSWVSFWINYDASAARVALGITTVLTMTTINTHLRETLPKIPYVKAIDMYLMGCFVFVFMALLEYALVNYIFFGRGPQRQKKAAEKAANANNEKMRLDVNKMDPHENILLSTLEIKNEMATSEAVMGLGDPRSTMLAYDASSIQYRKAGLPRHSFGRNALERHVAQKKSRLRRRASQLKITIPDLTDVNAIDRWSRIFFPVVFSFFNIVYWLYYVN
# T1 sequence (P18508 39-466 partner): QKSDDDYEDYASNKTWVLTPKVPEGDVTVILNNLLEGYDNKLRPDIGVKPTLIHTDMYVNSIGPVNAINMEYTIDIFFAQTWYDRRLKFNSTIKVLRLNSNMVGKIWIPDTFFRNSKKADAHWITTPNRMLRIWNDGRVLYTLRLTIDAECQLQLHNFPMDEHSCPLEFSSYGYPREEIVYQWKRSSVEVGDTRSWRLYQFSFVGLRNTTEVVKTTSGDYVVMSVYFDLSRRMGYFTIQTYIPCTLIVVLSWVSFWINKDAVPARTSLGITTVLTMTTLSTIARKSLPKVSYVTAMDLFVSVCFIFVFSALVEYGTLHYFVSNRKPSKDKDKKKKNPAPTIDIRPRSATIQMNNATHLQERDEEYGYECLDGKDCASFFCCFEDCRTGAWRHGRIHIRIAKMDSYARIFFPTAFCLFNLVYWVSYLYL
row,Molecule,GABAA α2 EP EMAX (%)
1,"C#Cc1ccc2c(c1)C(c1ccccc1)=NCc1c(C(=O)NCCSCCNC(=O)c3ncn4c3CN=C(c3ccccc3)c3cc(C#C)ccc3-4)ncn1-2 [Example 25, N,N′-(2,2′-Thiobis(ethane-2,1-diyl))bis(8-ethynyl-6-phenyl-4H-benzo[f]imidazo[1,5-a][1,4]diazepine-3-carboxamide)]",* (200% < Emax < 300 *)
2,"C#Cc1ccc2c(c1)C(c1ccccc1)=NCc1c(C(=O)NCCN(C)CCNC(=O)c3ncn4c3CN=C(c3ccccc3)c3cc(C#C)ccc3-4)ncn1-2 [Example 24, N,N′-(2,2′-(Methylazanediyl)bis(ethane-2,1-diyl))bis(8-ethynyl-6-phenyl-4H-benzo[f]imidazo[1,5-a][1,4]diazepine-3-carboxamide)]",** (300% < Emax < 400 **)
3,"N-Cyclopropyl-8-ethynyl-6-phenyl-4H-benzo[f]imidazo[1,5-a][1,4]diazepine-3-carboxamide [Example 11]",** (300% < Emax < 400 **)

# Same assay, conditions: percent increase in mean GABA EC20 current response; HEK293 cells stably expressing rat GABAA α2β2γ2; voltage-clamped at −60 mV; read-out: GABAA α2 EP EMAX (%)
row,Molecule,Emax [%]
1,"C#Cc1ccc2c(c1)C(c1ccccc1)=NCc1c(C(=O)NCc3ccco3)ncn1-2 [Example 35, 8-Ethynyl-N-(furan-2-ylmethyl)-6-phenyl-4H-benzo[f]imidazo[1,5-a][1,4]diazepine-3-carboxamide, dihydrochloride]",200 to 300
2,C#Cc1ccc2c(c1)C(c1ccccc1)=NCc1c(C(=O)N3CCOCC3)ncn1-2 [Example 9],400 to 500
3,"C#Cc1ccc2c(c1)C(c1ccccc1)=NCc1c(C(=O)N[C@@H](COC)C3CC3)ncn1-2 [Example 14, N—((R)-1-Cyclopropyl-2-methoxyethyl)-8-ethynyl-6-phenyl-4H-benzo[f]imidazo[1,5-a][1,4]diazepine-3-carboxamide]",200 to 300
4,"C#Cc1ccc2c(c1)C(c1ccccc1)=NCc1c(C(=O)NCC(=O)OCC)ncn1-2 [Example 7, Ethyl 2-(8-ethynyl-6-phenyl-4H-benzo[f]imidazo[1,5-a][1,4]diazepine-3-carboxamido)acetate]",300 to 400
5,"C#Cc1ccc2c(c1)C(c1ccccc1)=NCc1c(C(=O)N(CC)CC)ncn1-2 [Example 1, N,N-Diethyl-8-ethynyl-6-phenyl-4H-benzo[f]imidazo[1,5-a][1,4]diazepine-3-carboxamide]",400 to 500
6,"C#Cc1ccc2c(c1)C(c1ccccc1)=NCc1c(C(=O)NCCOC(C)=O)ncn1-2 [Example 32, 2-(8-Ethynyl-6-phenyl-4H-benzo[f]imidazo[1,5-a][1,4]diazepine-3-carboxamido)ethyl acetate dihydrochloride]",300 to 400
7,"C#Cc1ccc2c(c1)C(c1ccccc1)=NCc1c(C(=O)NCCCOC)ncn1-2 [Example 18, 8-Ethynyl-N-(3-methoxypropyl)-6-phenyl-4H-benzo[f]imidazo[1,5-a][1,4]diazepine-3-carboxamide]",400 to 500
